Like-named read-outs stand apart in the source and are kept apart here.
Assays:
NCI-H1703 cells = experiment: GLS Cell Proliferation Assay (NCI-H1703 cell proliferation); format: cell-based
Description: (§1) The following assays were used to measure the effects of the compounds described herein: a) GLS Enzyme Potency Assay; b) GLS Cell Potency Assay; c) GLS Cell Proliferation Assay. During the description of the assays, generally: • i. The following abbreviations have been used: CO2=Carbon dioxide; DMEM=Dulbecco's Modified Eagle Medium; DMSO=Dimethyl sulphoxide; EDTA=Ethylenediaminetetraacetic acid; EGTA=Ethylene glycol tetraacetic acid; FCS=Foetal calf serum; h=Hour(s); NBS=Non-binding surface; SDS=Sodium dodecyl sulphate; TRIS=Tris(Hydroxymethyl)aminomethane. • ii. IC50 values were calculated using a smart fitting model in Genedata.
Assay c): GLS Cell Proliferation Assay
The ability of compounds to inhibit cell growth was measured using a 384 well plate NCI-H1703 cell proliferation assay. NCI-H1703 cells were grown in phenol red free RPMI1640, 10% FCS and 2 mM glutamine and seeded at a density of 750 cells per well in 40 μl of growth medium into clear-bottom 384 well assay plates (Corning product code 3712) and incubated for 24 h at 37° C., 5% CO2. […] DMSO concentration was maintained at 0.3% by back filling with DMSO solution. Plates were incubated for 5 days at 37° C., 5% CO2, Sytox Green and Saponin added to final concentration of 2 μM and 0.25% respectively and incubated for 6 h prior to analysis. […] IC50 values were calculated by curve fitting to max inhibition of day zero growth using GeneData software analysis.

GLS1 = GLS1 (Homo sapiens (Human), UniProt O94925); experiment: GLS Enzyme Potency Assay (Glutamate Oxidase/AmplexRed coupled assay); format: biochemical
Sequence of GLS1 (O94925 63-669): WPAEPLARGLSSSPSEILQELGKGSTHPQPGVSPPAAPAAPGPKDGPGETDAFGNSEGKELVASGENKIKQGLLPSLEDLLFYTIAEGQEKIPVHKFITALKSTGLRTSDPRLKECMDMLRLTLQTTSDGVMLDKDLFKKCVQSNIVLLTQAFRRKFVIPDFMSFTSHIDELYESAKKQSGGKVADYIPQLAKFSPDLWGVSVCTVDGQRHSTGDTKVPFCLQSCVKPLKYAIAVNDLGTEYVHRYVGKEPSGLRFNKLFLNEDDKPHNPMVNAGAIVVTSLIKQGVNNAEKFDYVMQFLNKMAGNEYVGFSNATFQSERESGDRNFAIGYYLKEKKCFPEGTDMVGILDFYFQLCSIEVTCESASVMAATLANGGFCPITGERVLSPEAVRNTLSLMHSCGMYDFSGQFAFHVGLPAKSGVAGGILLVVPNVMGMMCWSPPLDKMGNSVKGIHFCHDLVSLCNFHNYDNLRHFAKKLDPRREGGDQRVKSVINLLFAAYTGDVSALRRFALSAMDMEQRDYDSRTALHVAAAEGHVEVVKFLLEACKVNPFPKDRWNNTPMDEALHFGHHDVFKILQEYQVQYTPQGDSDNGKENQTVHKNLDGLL
Description: as §1
Assay a): GLS Enzyme Potency Assay
A Glutamate Oxidase/AmplexRed coupled assay was used to measure the ability of compounds to bind to and inhibit the activity of GLS1 in vitro. […] GLS1 was diluted to 2× working concentration and incubated at room temperature to allow the tetrameric/dimeric forms to reach steady state. Assay measurements were performed in buffer comprising 50 mM TRIS pH 7.8, 100 mM NaPO4, pH 7.8, 0.001% v/v Tween20. Purified recombinant GLS1 protein was diluted in assay buffer to 12 nM and pre-incubated at room temperature for 30 minutes. […] DMSO concentration was maintained at 2% by back filling with DMSO solution. 3 μL of diluted GLS1 protein (12 nM) was then dispensed into each well using a BioRaptr automated dispenser (Beckman-Coulter) and incubated for 15 minutes at room temperature. 3 μL of 100 mM glutamine diluted in assay buffer was then added and the reaction incubated at room temperature for 60 minutes. […] An artefact version of the assay where the 6His tagged GLS protein and glutamine were replaced with assay buffer was also used to rule out non specific effects on the assay components.

[1] = target: cellular GLS activity in PC3 cells (Homo sapiens (Human), UniProt O94925); experiment: GLS Cell Potency Assay (PC3 coupled assay measuring cellular glutamate depletion); format: cell-based; conditions: PC3 cells, 6 h incubation, glutamate depletion; read-out: Assay b) GLS cell MOA Mean IC50
Sequence of cellular GLS activity in PC3 cells (O94925 73-669): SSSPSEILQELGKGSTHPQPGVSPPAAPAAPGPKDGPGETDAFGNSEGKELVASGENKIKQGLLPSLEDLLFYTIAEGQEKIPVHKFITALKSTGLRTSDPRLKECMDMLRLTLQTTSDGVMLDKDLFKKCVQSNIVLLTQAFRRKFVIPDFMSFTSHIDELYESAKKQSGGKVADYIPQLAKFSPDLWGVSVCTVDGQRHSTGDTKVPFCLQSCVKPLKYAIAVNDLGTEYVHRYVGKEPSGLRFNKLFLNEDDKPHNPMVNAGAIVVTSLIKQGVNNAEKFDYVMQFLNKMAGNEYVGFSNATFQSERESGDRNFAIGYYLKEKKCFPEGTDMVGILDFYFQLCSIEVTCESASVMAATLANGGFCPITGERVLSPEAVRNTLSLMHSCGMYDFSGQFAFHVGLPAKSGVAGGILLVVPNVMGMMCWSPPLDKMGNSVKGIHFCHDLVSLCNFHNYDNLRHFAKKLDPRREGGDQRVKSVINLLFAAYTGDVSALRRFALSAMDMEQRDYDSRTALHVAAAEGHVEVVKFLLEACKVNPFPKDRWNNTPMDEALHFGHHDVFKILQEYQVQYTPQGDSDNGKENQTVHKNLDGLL
Description: as §1
Assay b): GLS Cell Potency Assay
Compounds were assessed for their potential to inhibit cellular GLS activity by use of a PC3 coupled assay measuring cellular glutamate depletion. […] DMSO concentration was maintained at 0.3% by back filling with DMSO solution. PC3 cells were grown in phenol free DMEM, 10% dialyzed FCS, 2 mM glutamine and following dispersal by trypsinisation were plated at 5.6×10^3 cells per well in 40 μl of growth medium directly into the 384 well assay plates containing dispensed compound. After incubation for 6 h at 37° C., 5% CO2 growth media was aspirated and cells lysed in 15 μl of buffer containing 10 mM TRIS pH7.4, 100 mM NaCl, 1 mM EDTA, 1 mM EGTA, 1 mM NaF, 20 mM Na4P2O7, 2 mM Na3VO4, 1% Triton X-100, 10% glycerol, 0.1% SDS and 0.5% deoxycholate.

[2] = NCI-H1703 cells, 5 days; read-out: Assay c) Prolif Mean IC50
[3] = 6His tagged GLS protein (amino acids 63-669), recombinant; read-out: Assay a) enz IC50
[4] = Homo sapiens, NCI-H1703, 120 h, NCI-H1703 cells, 5 days; read-out: Assay c) Prolif Mean IC50

Row | IC50 (NCI-H1703 cells; [2]) [µM] | IC50 (GLS1; [3]) [µM] | IC50 [1] [µM] | IC50 (NCI-H1703 cells; [4]) [µM] | IC50 (GLS1; read-out: Assay a) enz IC50) [µM] | SMILES
1 | 0.0211 | 0.147 | 0.000556 |  |  | COC(C(=O)Nc1nnc(N[C@@H]2CCN(c3cccnn3)C2)s1)c1ccc(F)c(N2CC(F)(F)C2)c1 (stereo partly drawn) [Example 37, 2-[3-(3,3-difluoroazetidin-1-yl)-4-fluoro-phenyl]-2-methoxy-N-[5-[[(3R)-1-pyridazin-3-ylpyrrolidin-3-yl]amino]-1,3,4-thiadiazol-2-yl]acetamide]
2 |  | 0.0482 | 0.00885 | 0.0591 |  | COc1cc(OC)cc([C@@H](OC)C(=O)Nc2nnc(N[C@@H]3CCN(c4cccnn4)C3)s2)c1 [Example 21(b), (2R)-2-(3,5-Dimethoxyphenyl)-2-methoxy-N-[5-[[(3R)-1-pyridazin-3-ylpyrrolidin-3-yl]amino]-1,3,4-thiadiazol-2-yl]acetamide]
3 | 0.00196 | 0.0511 | 0.000404 |  |  | CCOC(C(=O)Nc1nnc(N[C@@H]2CCN(c3cccnn3)C2)s1)c1cccc(N2CC(F)(F)C2)c1 (single isomer, unassigned) [Example 29]
4 | 0.0377 | 1.37 | 0.00322 |  |  | CCOC(C(=O)Nc1nnc(N[C@@H]2CCN(c3cccnn3)C2)s1)c1cccc(N2CC(F)(F)C2)c1 (single isomer, unassigned) [Example 30]
5 |  |  | 0.0106 | 0.178 |  | CCO[C@@H](C(=O)Nc1nnc(N[C@@H]2CCN(c3cccnn3)C2)s1)c1cccc(N2CC(OC)C2)c1 [Example 22(b), (2R)-2-ethoxy-2-[3-(3-methoxyazetidin-1-yl)phenyl]-N-[5-[[(3R)-1-pyridazin-3-ylpyrrolidin-3-yl]amino]-1,3,4-thiadiazol-2-yl]acetamide]
6 | 0.831 | 1.84 | 0.0861 |  |  | COC(C(=O)Nc1nnc(N[C@@H]2CCN(c3nccnn3)C2)s1)c1cccc(C2COC2)c1 (single isomer, unassigned) [Example 25]
7 | 0.00903 | 0.077 | 0.00121 |  |  | COC(C(=O)Nc1nnc(N[C@@H]2CCN(c3ccc(C)nn3)C2)s1)c1cccc(N2CC(F)C2)c1 (single isomer, unassigned) [Example 35]
8 | 0.00594 | 0.13 | 0.000405 |  |  | COC(C(=O)Nc1nnc(N[C@@H]2CCN(c3ccc(C)nn3)C2)s1)c1cccc(N2CC(F)(F)C2)c1 (stereo partly drawn) [Example 39, 2-[3-(3,3-difluoroazetidin-1-yl)phenyl]-2-methoxy-N-[5-[[(3R)-1-(6-methylpyridazin-3-yl)pyrrolidin-3-yl]amino]-1,3,4-thiadiazol-2-yl]acetamide]
9 | 0.00224 | 0.02 | 0.000292 |  |  | COc1cc(OC)cc(C(OC)C(=O)Nc2nnc(N[C@@H]3CCN(c4cccnn4)C3)s2)c1 (single isomer, unassigned) [Example 43]
10 | 0.262 | 0.195 | 0.0515 |  |  | COC(C(=O)Nc1nnc(N[C@@H]2CCN(c3ccc(F)nn3)C2)s1)c1cccc(N2CC(F)C2)c1 (single isomer, unassigned) [Example 28]
11 |  | 0.0206 | 0.00083 |  |  | CO[C@H](C(=O)Nc1nnc(N[C@@H]2CCN(c3cccnn3)C2)s1)c1cccc(N2CC(F)C2)c1 (single isomer, unassigned) [Example 1(a)]
12 | 0.00321 | 0.0968 | 0.000573 |  |  | CCOC(C(=O)Nc1nnc(N[C@@H]2CCN(c3cccnn3)C2)s1)c1cccc(N2CC(F)C2)c1 (single isomer, unassigned) [Example 31]
13 |  |  | 0.0113 |  | 0.146 | COC[C@H](C(=O)Nc1nnc(N[C@@H]2CCN(c3ccc(C)nn3)C2)s1)c1ccccc1 (single isomer, unassigned) [45(b)]
14 |  |  | 0.0184 |  | 0.0726 | CO[C@H](C(=O)Nc1nnc(N[C@@H]2CCN(c3cccnn3)C2)s1)c1cccc(N2CC(F)C2)c1 (single isomer, unassigned) [Example 1(b)]
15 |  | 0.02 | 0.000292 | 0.00224 |  | COc1cc(OC)cc([C@H](OC)C(=O)Nc2nnc(N[C@@H]3CCN(c4cccnn4)C3)s2)c1 [Example 21(a), (2S)-2-(3,5-Dimethoxyphenyl)-2-methoxy-N-[5-[[(3R)-1-pyridazin-3-ylpyrrolidin-3-yl]amino]-1,3,4-thiadiazol-2-yl]acetamide]
16 | 0.0291 | 0.0526 | 0.00348 |  |  | COC(C(=O)Nc1nnc(N[C@@H]2CCN(c3nccnn3)C2)s1)c1cccc(C2COC2)c1 (single isomer, unassigned) [Example 24]
17 | 0.018 |  | 0.0106 |  |  | CCOC(C(=O)Nc1nnc(N[C@@H]2CCN(c3cccnn3)C2)s1)c1cccc(N2CC(OC)C2)c1 (stereo partly drawn) [Example 34, 2-ethoxy-2-[3-(3-methoxyazetidin-1-yl)phenyl]-N-[5-[[(3R)-1-pyridazin-3-ylpyrrolidin-3-yl]amino]-1,3,4-thiadiazol-2-yl]acetamide]
18 |  | 0.0482 | 0.00885 | 0.0591 |  | COc1cc(OC)cc(C(OC)C(=O)Nc2nnc(N[C@@H]3CCN(c4cccnn4)C3)s2)c1 (stereo partly drawn) [Example 23, 2-(3,5-dimethoxyphenyl)-2-methoxy-N-[5-[[(3R)-1-pyridazin-3-ylpyrrolidin-3-yl]amino]-1,3,4-thiadiazol-2-yl]acetamide]
19 | 0.0591 | 0.0482 | 0.00885 |  |  | COc1cc(OC)cc(C(OC)C(=O)Nc2nnc(N[C@@H]3CCN(c4cccnn4)C3)s2)c1 (single isomer, unassigned) [Example 44]
20 | 0.394 | 0.612 | 0.0218 |  |  | COC(C(=O)Nc1nnc(N[C@@H]2CCN(c3ccc(C)nn3)C2)s1)c1cccc(N2CC(F)C2)c1 (single isomer, unassigned) [Example 36]
21 |  | 0.0235 | 0.000334 | 0.0042 |  | COc1cc(OC)cc(C(OC)C(=O)Nc2nnc(N[C@@H]3CCN(c4ccc(F)nn4)C3)s2)c1 (stereo partly drawn) [Example 26, 2-(3,5-dimethoxyphenyl)-N-[5-[[(3R)-1-(6-fluoropyridazin-3-yl)pyrrolidin-3-yl]amino]-1,3,4-thiadiazol-2-yl]-2-methoxy-acetamide]
22 | 0.0135 | 0.149 | 0.0014 |  |  | COC(C(=O)Nc1nnc(N[C@@H]2CCN(c3ccc(F)nn3)C2)s1)c1cccc(N2CC(F)C2)c1 (single isomer, unassigned) [Example 27]

From US10323028B2, “1,3,4-thiadiazole compounds and their use in treating cancer” (AstraZeneca AB, priority 2015, dated 2019)
